Assay [1] has as its system HCT116 colon carcinoma. Set-up: method as in doi:10.1039/c3nj00513e. The settings on record: MTT; ref [6]; cited from earlier work.
Assay [2] deals with K562 leukemia cells. Set-up: method as in doi:10.1039/c3nj00513e. The settings on record: MTT; ref [6]; cited from earlier work.
Assay [3] has as its system Normal human skin fibroblast cells. Set-up: method as in doi:10.1039/c3nj00513e. The settings on record: MTT; ref [6]; read-out: IC50 FIBRO; cited from earlier work.
The subject of assay [4] is K562 cells. In words: Annexin V-FITC/PI apoptosis assay by flow cytometry. Format: cell-based. The settings on record: 25 and 50 μM, 24 h. Here is the method:
In this study we also tested in vitro the nucleoside-alkyne derivatives (namely ALK-A, ALK-G, ALK-dG and ALK-dU) and the N3-BA building blocks (namely 3α-N3-CDC, 3α-N3-UDC, 3α-N3-TUDCA, 23-N3-nor-CDC and 23-N3-nor-UDC). […] (Table 1). To determine whether the antiproliferative activity induced by dA-nor-CDC was related to apoptosis, as previously reported for the corresponding dA-CDC conjugate, K562 cells were treated with compound dA-nor-CDC (25 and 50 μM) for 24 h, then assayed by flow cytometry analysis with Annexin V-FITC staining.
The percentage of apoptotic cells was assessed using the Annexin V assay (Clontech Laboratories, Inc. A Takara Bio Company, Mountain View, CA, USA). Propidium iodide (PI) was used to avoid necrotic cell detection (Annexin−/PI+). The drug-induced apoptotic rate (Annexin+/PI− and Annexin V+/PI+) was compared with the apoptosis in the absence of the drugs used as control (spontaneous apoptosis). K562 cells were cultured in RPMI + 10% FBS in a 6-weels plate for 24 h in the presence of compounds dA-nor-CDC at concentration of 50 and 25 μM. […] Incubation with annexin V for 15 min on ice in dark was directly followed by flow cytometric analysis of the cells with a FACScan (Becton Dickinson, San Jose, CA, USA) at 488 nm and quantified using the Cell Quest Pro software (Becton Dickinson).
For orientation: Flow cytometry measures light scatter and fluorescence of single cells or particles in a stream.

Assay [5] relates to K562 leukemia cells. In words: MTT assay, cell growth inhibition of K562 leukemia cells. The assay is classed as cell-based. The settings on record: MTT, 72 h incubation, mean of three independent experiments ± SD, IC50 > 50 means inhibition <20% at 50 μM, read-out: IC50 K562. The method, then: (§1) All conjugated compounds prepared via click chemistry and listed in Table 1 were evaluated in vitro for their cytotoxic activity against K562 leukemia cells and the colon cancer cell line HCT116. Normal human skin fibroblast cells were chosen as a control and cisplatin served as a reference compound. The cytotoxicity was evaluated using the MTT assay (details are reported in the Materials and Methods section). In all experiments the cell growth inhibition of K562 and HCT116 was determined for each compound at concentrations of 10, 25 and 50 μM after 72 h of treatment and up to 100 μM in the case of fibroblasts.
(§2) Cell growth inhibition assays were carried out using the leukemia cell line K562 and colon carcinoma HCT116. Cell lines were obtained from ATCC (Manassas, VA, USA) and maintained in RPMI 1640, supplemented with 10% fetal bovine serum (FBS), penicillin (100 Units mL^−1), streptomycin (100 μg mL^−1) and glutamine (2 mM) (complete medium); the pH of the medium was 7.2 and the incubation was performed at 37 °C in a 5% CO2 atmosphere. Adherent cells were routinely used at 70% of confluence and passaged every 3 days by treatment with 0.05% Trypsin-EDTA (Lonza, Walkersville, MD, USA). K562 cells were routinely fed every 3 days.
(§3) The antiproliferative activity of the compounds was tested using the 3-(4,5-dimethylthiozol-2-yl)2,5-diphenyltetrazolium bromide solution (MTT) assay. K562 and HCT116 were seeded in triplicate in 96-well trays respectively at the density of 5 × 10^3 and 10^4 in 50 μL of complete medium. Stock solutions (50 mM) of each compound were made in DMSO and diluted in complete medium to give final concentrations of 50, 25 and 10 μM. Untreated cells were placed in every plate as a negative control. The cells were exposed to the compounds, in 100 μL total volume, for 72 h.

Assay [6] has as its system Normal human skin fibroblast cells. In words: MTT assay, cytotoxicity on normal fibroblasts (control). Format: cell-based. The settings on record: MTT, 72 h incubation, up to 100 μM, mean of three independent experiments ± SD, IC50 > 100 means inhibition <10% at 100 μM, read-out: IC50 FIBRO. Here is the method: as §1, §3
Background: Formazan colour is commonly taken as a measure of viable cells.

Assay [7] concerns HCT116 colon carcinoma. In words: MTT assay, cell growth inhibition of HCT116 colon carcinoma. The assay is classed as cell-based. The settings on record: MTT, 72 h incubation, mean of three independent experiments ± SD, IC50 > 50 means inhibition <20% at 50 μM. Here is the method: as §1, §2, §3
Where [8] appears, read: Homo sapiens, Skin fibroblast, 72 h.

Read-outs that look alike come from different tables or passages of the source. Some results are limits rather than exact numbers.

Regarding `C#CCCCCC#Cc1nc2c(N)ncnc2n1[C@H]1C[C@H](O)[C@@H](CO)O1` [ALK-dA, 8-(1,7-Octadynyl)-2′-deoxyadenosine], the results for the 50% inhibitory concentration (IC50) in assay [1], in assay [2] and in assay [3] were above 50 µM, above 50 µM and above 100 µM, respectively.

As for `COC(=O)CCC(C)[C@H]1CCC2C3C(CC[C@@]21C)[C@@]1(C)CC[C@@H](n2cc(CCCCC#Cc4nc5c(N)ncnc5n4[C@H]4C[C@H](O)[C@@H](CO)O4)nn2)CC1C[C@H]3O` (some centres unmarked) [dA-CDC], the results for the IC50 in assay [1], in assay [2] and in assay [3] were above 200 µM, 8.5 ± 4 µM and above 200 µM, respectively.

On to `COC(=O)CCC(C)[C@H]1CCC2C3C(CC[C@@]21C)[C@@]1(C)CC[C@@H](n2cc(CCCCC#Cc4nc5c(N)ncnc5n4[C@H]4C[C@H](O)[C@@H](CO)O4)nn2)CC1C[C@@H]3O` (some centres unmarked) [dA-UDC], for which the IC50 in assay [1] is above 200 µM; in assay [2] it was above 100 µM; in assay [3], above 200 µM.

Consider `CC(CCn1cc(CCCCC#Cc2nc3c(N)ncnc3n2[C@H]2C[C@H](O)[C@@H](CO)O2)nn1)[C@H]1CCC2C3C(CC[C@@]21C)[C@@]1(C)CC[C@@H](O)CC1C[C@H]3O` (some centres unmarked) [dA-nor-CDC], for which, in assay [4], the “induction of apoptosis (in words)” value is “induced apoptosis in a dose dependent manner”. Besides, the IC50 in assay [5] (Homo sapiens, K562, 72 h) is at most 25 µM; in assay [5], 16.2 ± 2.2 µM; in assay [6] (setting [8]), around 100 µM; in assay [6], 91.5 ± 3.5 µM; in assay [7] (Homo sapiens, HCT-116, 72 h), at most 25 µM; in assay [7], 17 ± 2.5 µM.

As for `COC(=O)CCC(C)[C@H]1CCC2C3C(CC[C@@]21C)[C@@]1(C)CC[C@@H](n2cc(CCCCC#Cc4nc5c(=O)[nH]c(N)nc5n4[C@H]4C[C@H](O)[C@@H](CO)O4)nn2)CC1C[C@@H]3O` (some centres unmarked) [dG-UDC], the IC50 was above 50 µM in assay [5] (Homo sapiens, K562, 72 h); above 100 µM in assay [6] (setting [8]); above 50 µM in assay [7] (Homo sapiens, HCT-116, 72 h).

Take `CC(CCn1cc(CCCCC#Cc2nc3c(=O)[nH]c(N)nc3n2[C@H]2C[C@H](O)[C@@H](CO)O2)nn1)[C@H]1CCC2C3C(CC[C@@]21C)[C@@]1(C)CC[C@@H](O)CC1C[C@H]3O` (some centres unmarked) [dG-nor-CDC]: the IC50 in assay [5] (Homo sapiens, K562, 72 h) is above 50 µM; in assay [6] (setting [8]) it was above 100 µM; in assay [7] (Homo sapiens, HCT-116, 72 h), above 50 µM.

For `CC(CCn1cc(CCCCC#Cc2nc3c(=O)[nH]c(N)nc3n2[C@H]2C[C@H](O)[C@@H](CO)O2)nn1)[C@H]1CCC2C3C(CC[C@@]21C)[C@@]1(C)CC[C@@H](O)CC1C[C@@H]3O` (some centres unmarked) [dG-nor-UDC], the IC50 was above 50 µM in assay [5] (Homo sapiens, K562, 72 h); above 100 µM in assay [6] (setting [8]); above 50 µM in assay [7] (Homo sapiens, HCT-116, 72 h).

Consider `COC(=O)CCC(C)[C@H]1CCC2C3C(CC[C@@]21C)[C@@]1(C)CC[C@@H](n2cc(CCCCC#Cc4cn([C@H]5C[C@H](O)[C@@H](CO)O5)c(=O)[nH]c4=O)nn2)CC1C[C@H]3O` (some centres unmarked) [dU-CDC], for which the half-maximal inhibitory concentration (IC50) was above 50 µM in assay [5] (Homo sapiens, K562, 72 h); above 100 µM in assay [6] (setting [8]); above 50 µM in assay [7] (Homo sapiens, HCT-116, 72 h).

On to `COC(=O)CCC(C)[C@H]1CCC2C3C(CC[C@@]21C)[C@@]1(C)CC[C@@H](n2cc(CCCCC#Cc4cn([C@H]5C[C@H](O)[C@@H](CO)O5)c(=O)[nH]c4=O)nn2)CC1C[C@@H]3O` (some centres unmarked) [dU-UDC], for which the IC50 in assay [5] (Homo sapiens, K562, 72 h) was at most 25 µM; in assay [5] it was 21.5 ± 2 µM; in assay [6] (setting [8]) it was around 100 µM; in assay [6] it was 91.5 ± 4.5 µM; in assay [7] (Homo sapiens, HCT-116, 72 h), at most 25 µM; in assay [7] it was 23.5 ± 1.6 µM.

Regarding `CC(CCn1cc(CCCCC#Cc2cn([C@H]3C[C@H](O)[C@@H](CO)O3)c(=O)[nH]c2=O)nn1)[C@H]1CCC2C3C(CC[C@@]21C)[C@@]1(C)CC[C@@H](O)CC1C[C@H]3O` (some centres unmarked) [dU-nor-CDC], the IC50 in assay [5] (Homo sapiens, K562, 72 h) was 42.9 ± 1.9 µM; in assay [6] (setting [8]), above 100 µM; in assay [7] (Homo sapiens, HCT-116, 72 h) it was above 50 µM.

With `CC(CCn1cc(CCCCC#Cc2cn([C@H]3C[C@H](O)[C@@H](CO)O3)c(=O)[nH]c2=O)nn1)[C@H]1CCC2C3C(CC[C@@]21C)[C@@]1(C)CC[C@@H](O)CC1C[C@@H]3O` (some centres unmarked) [dU-nor-UDC], the IC50 was at most 25 µM in assay [5] (Homo sapiens, K562, 72 h); 24.8 ± 1.5 µM in assay [5]; above 100 µM in assay [6] (setting [8]); 43 ± 3.5 µM in assay [7] (Homo sapiens, HCT-116, 72 h).

Usually IC50 stands for the concentration needed to halve the response being measured.
